“And” between values parts separate entries of the source, which are not always exact repeats. Identical values can stand only once. Blank lines part the entries; values can stand above or below the molecule they belong to.
How the values were obtained:
[1] = test system: AMPK at Thr172 and ACC at serine 79; assay: AMPK and ACC phosphorylation Western in CHO-HIR cells; type: cell-based; settings: AICAR 500 μM; resveratrol 12.5, 25 or 50 μM; 30 minutes
HepG2 cells = assay: Oxidation of 14C-palmitate (14C-CO2 production); type: cell-based; settings: resveratrol 10 μM, AICAR 500 μM, metformin 1 mM; 4 hours; vehicle 1
Experimental: (§1) Oxidation of ^14C-palmitate to acid-soluble products (modified from […] cells ([…]. and B. E. Kemp, J Biol Chem (1992) 267(5): 2864-7) and HepG2 cells were maintained as described above. Cells (10^6 cells/T25) were seeded in a T25 flask one day prior to the experiment. […] At the end of incubation, the cap of each […]per and a 1'×1.5'' Whatman filter paper soaked with 250 μl 2N NaOH. Each flask was injected with 2 ml of 6N HCL, placed in a horizontal position for 10 minutes and left standing overnight. […] The experiment was repeated three times.

H4IIEC3 cells = assay: Oxidation of 14C-palmitate (14C-CO2 production); type: cell-based; settings: resveratrol 10 μM, AICAR 500 μM, metformin 1 mM; 4 hours; vehicle 1
Experimental: as §1

[2] = target: T1, SIRT1 deacetylase (BIOMOL) (Homo sapiens, UniProt Q96EB6); assay: High-throughput SIRT1 screening protocol (Fluor de Lys-SIRT1, 384 well); type: biochemical; settings: positive controls; roughly 50 μM, 200 μM NAD+, 5 μM Fluor de Lys-SIRT1
T1 construct: purchased BIOMOL
T1 sequence (Q96EB6 1-747): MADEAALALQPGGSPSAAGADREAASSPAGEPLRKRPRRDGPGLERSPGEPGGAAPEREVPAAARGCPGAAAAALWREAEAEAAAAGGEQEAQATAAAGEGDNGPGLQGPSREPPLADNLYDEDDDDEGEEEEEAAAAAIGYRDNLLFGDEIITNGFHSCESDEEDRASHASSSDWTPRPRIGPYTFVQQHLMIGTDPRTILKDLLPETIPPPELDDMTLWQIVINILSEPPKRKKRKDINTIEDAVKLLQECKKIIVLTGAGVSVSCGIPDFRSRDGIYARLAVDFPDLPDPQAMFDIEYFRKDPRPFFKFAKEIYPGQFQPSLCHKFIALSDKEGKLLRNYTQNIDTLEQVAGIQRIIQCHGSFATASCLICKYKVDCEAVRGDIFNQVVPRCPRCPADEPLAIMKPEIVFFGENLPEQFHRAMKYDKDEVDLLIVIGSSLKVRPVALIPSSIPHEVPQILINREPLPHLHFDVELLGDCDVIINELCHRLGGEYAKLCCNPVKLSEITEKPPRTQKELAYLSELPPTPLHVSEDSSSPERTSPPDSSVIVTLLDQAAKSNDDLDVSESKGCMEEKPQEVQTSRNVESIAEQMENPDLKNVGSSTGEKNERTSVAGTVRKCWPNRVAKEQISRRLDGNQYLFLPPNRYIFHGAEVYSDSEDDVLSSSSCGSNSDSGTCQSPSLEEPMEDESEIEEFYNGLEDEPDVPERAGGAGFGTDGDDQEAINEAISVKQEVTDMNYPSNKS
Experimental: The reaction mixture contains (final): 0.5 units/reaction SIRT1 deacetylase (BIOMOL); 200 μM NAD^+; 5 μM Fluor de Lys-SIRT1 substrate (BIOMOL); buffer (25 mM Tris/Cl, pH 8.0, 137 mM NaCl, 2.7 mM KCl, 1 mM MgCl2, and 1 mg/ml BSA). In addition, a reaction mixture containing no enzyme was made so that each well receiving compound has a corresponding “no enzyme control” well. Reactions were performed in black 384 well plates (NUNC) in a final volume of 25 μl/well.
The reactions were started by combining enzyme and substrate in a reaction mixture immediately prior to aliquoting in plates (or substrate only for “no enzyme control” plates). Mixture were aliquoted to plates using Biotek μFill (Biotek Instruments). Control mixtures were manually added to designated wells. A library compound was added at a desired concentration by pin transfer to both “with enzyme” and “no enzyme” plates. Compounds were added in at least triplicate (with enzyme reaction in duplicate and no enzyme controls) at a final concentration of roughly 50 μM. The plates were incubated at 37° C. for 30-60 minutes. Then 25 μl of 1× Developer II (BIOMOL) plus 2 mM nicotinamide were added to all wells to stop the reactions. The reactions were left for at least 30 minutes at 37° C. for the signal to develop. The plates were read in a microplate-reading fluorometer capable of excitation at a wavelength in the range of 350-380 nm and detection of emitted light in the range of 440-460 nm. A read time of 0.1 sec per well was used.

C. elegans = C. elegans fat accumulation, Nile Red staining; type: in vivo; settings: for Concentration as low as which fat accumulation is reduced: 10, 50 and 100 μM tested
Experimental: Fat accumulation was visualized with Nile Red staining, as described further below and in Ashrafi K, et al. Nature 421:268-27 (2003).
Synchronized starved L1 worms were grown in the presence of Nile Red. Strains were grown on NGM plates at 25° C. for approximately 48 hours until the young adult stage was reached. 20-30 young adult worms were then washed 2× with M9 buffer and transferred to new NGM/Nile red experimental plates that contained either OP50 or HTT5 E. coli carrying the L4440 RNAi control vector.
Young adults were transferred to plates containing the appropriate vector, Nile Red stain and drug then maintained at 25° C.
Nile Red: Nile Red Powder (Sigma #N-3013) was dissolved in acetone at 500 μg/ml, diluted in 1× Phosphate Buffered Saline (PBS) including appropriate drug and applied to surface of Nematode Growth Media (NGM) plates previously seeded with OP50 or RNAi bacteria, at a final concentration of 0.05 μg/ml. Fat content was monitored and recorded by fluorescence microscopy.

D. melanogaster = D. melanogaster survival (lifespan) assay; type: in vivo
Experimental: Survival assays were conducted independently with adult D. melanogaster in two laboratories. In the first laboratory, all trials used an yw marked wild-type strain. Larvae were reared on standard cornmeal-sugar-yeast (CSY) agar diet (cornmeal 5%, sucrose 10.5%, SAF yeast 2%, and agar 0.7%). Newly eclosed adults were placed in 1 L demography cages with approximately 75 males and 75 females. Three to four replicate 1 L demography cages were used for each treatment group in each trial. Every two days, dead flies were removed and scored, and food vials were replenished. Food vials contained cornmeal-sugar-yeast diet with SAF yeast as either 2% or 3% by weight. Test compounds in 100 μl of EtOH (or blank EtOH in controls) were mixed into melted aliquots of the adult food media to make a final concentration of 0, 10 or 100 μM. Fresh stock solutions and adult media were prepared weekly. In the second laboratory, lifespan trials were conducted with the wild type strain Canton-S, dSir2^4.5 and dSir2^5.26 (S. Smolik, University of Oregon), dSir2^17 (S. Astrom, Stockholm University, Sweden), and dSir2^KG00871 (Drosophila Stock Center, Bloomington, Ind.). Larvae for all tests were reared on standard cornmeal-sugar-yeast diet. Newly eclosed adults were incubated in plastic shell vials containing 5 ml of 15% sugar-yeast diet (15% SY) or 5% sugar-yeast (5% SY) diet (15% SY: 15% yeast, 15% sucrose, 2% agar; 5% SY: 5% yeast, 5% sucrose, 2% agar as per Ref.^20). In all trials, ˜20 males with ˜20 females were placed into each of 10 vials/treatment group. Every two days, flies were passed into new vials and dead flies were counted. […] Final compound concentrations were 0, 10, 100 or 200 μM. Fresh stock solution and adult media was prepared weekly.

recombinant human SIRT1 = target: T2, recombinant human SIRT1 (Homo sapiens, UniProt Q96EB6); assay: SIRT1 fluorescent deacetylation assay (p53-382 acetylated peptide); type: biochemical
T2 sequence (Q96EB6 1-747): T1 sequence (Q96EB6 1-747)

S. cerevisiae = assay: Yeast replicative lifespan by micro-manipulation; type: cell-based; settings: 10 μM
Experimental: Average lifespan for wild type, 22.9 generations, quercetin, 23.4; piceatannol.
Lifespan measurements were performed using PSY316AT MATα as previously described^35. All compounds for lifespan analyses were dissolved in 95% ethanol and plates were dried and used within 24 hours. Prior to lifespan analysis, cells were pre-incubated on their respective media for at least 15 hours. Following transfer to a new plate, cells were equilibrated on the medium for a minimum of 4 hours prior to micro-manipulating them. At least 30 cells were examined per experiment and each experiment was performed at least twice. Statistical significance of lifespan differences was determined using the Wilcoxon rank sum test. Differences are stated to be significant when the confidence is higher than 95%.

[3] = target: p53-382 acetylated peptide substrate ('Fluor de Lys-SIRT1', BIOMOL) (human) (UniProt P04637)
[4] = test system: TNF-alpha treated adipocytes; assay: Radioactive glucose uptake in TNF-alpha treated insulin resistant adipocytes; type: cell-based; settings: resveratrol 5 μM or 15 μM; roziglitazone 4 μM

Molecule: NC(=O)c1ncn([C@@H]2O[C@H](CO)[C@@H](O)[C@H]2O)c1N [AICAR, 5-aminoimidazole-4-carboxamide-1-beta-D-ribofuranoside]
Phosphorylation of AMPK and ACC [1]: stimulates phosphorylation of AMPK and ACC
14C-CO2 production (nmol/hr/10^6 cells) (Fold Effect) (HepG2 cells): 5 fold
14C-CO2 production (nmol/hr/10^6 cells) (Fold Effect) (H4IIEC3 cells): 2.3 fold

Molecule: COc1ccc(/C=C/c2cc(O)cc(O)c2)cc1 [BML-233, 3,5-Dihydroxy-4′-methoxy-trans-stilbene]
Activation of SIRT1 [2]: 2.1 fold

Molecule: CN(C)C(=N)N=C(N)N [Metformin]
14C-CO2 production (nmol/hr/10^6 cells) (Fold Effect) (HepG2 cells): 3.5 fold
14C-CO2 production (nmol/hr/10^6 cells) (Fold Effect) (H4IIEC3 cells): 2 fold

Activation of SIRT1 [2]: 3.28 fold
Molecule: Oc1cc(O)cc(/C=C/c2ccccc2)c1 [Pinosylvin, 3,5-Dihydroxy-trans-stilbene]

Molecule: C(=C/c1ccccc1)/c1ccccc1 [cis-stilbene, cis-Stilbene]
Fat staining (C. elegans; 100 μM, 48 hours, control 2.5% v/v DMSO): No significant effect

Molecule: O=c1c(O)c(-c2ccc(O)c(O)c2)oc2cc(O)ccc12 [fisetin, 3,7,3′,4′-Tetrahyddroxyflavone]
Fat mobilization (C. elegans; 100 μM, 48 hours): stimulate fat mobilization
Concentration as low as which fat accumulation is reduced (C. elegans; 48 hours): 10 µM
Longevity under restricted diet (D. melanogaster; restricted diet): neither resveratrol nor fisetin further increased longevity
Lifespan extension (D. melanogaster; wild type strains, males and females, independent tests, maximum): up to 23%

Vmax decrease (recombinant human SIRT1; 50 μM nicotinamide, absence of resveratrol, two determinations (varying NAD+ or p53-382 peptide)): 30% and 36%
Molecule: NC(=O)c1cccnc1 [nicotinamide]
Fat accumulation (C. elegans; 0, 1 or 10 mM nicotinamide, overnight): concentration dependent increase in fat accumulation

Stimulation of SIRT1 activity (recombinant human SIRT1; initial screen (Table 1, 100 μM)): eight
Molecule: Oc1cc(O)cc(/C=C/c2ccc(O)c(O)c2)c1 [piceatannol, 3,5,3′,4′-Tetrahydroxy-trans-stilbene]
Effect on lifespan (in words) (S. cerevisiae): no significant effect
Fat mobilization (C. elegans; 100 μM, 48 hours): stimulate fat mobilization

Molecule: O=c1c(O)c(-c2ccc(O)c(O)c2)oc2cc(O)cc(O)c12 [quercetin, 3,5,7,3′,4′-Pentahydroxyflavone]
Effect on lifespan (in words) (S. cerevisiae): no significant effect
Fat mobilization (C. elegans; 100 μM, 48 hours): stimulate fat mobilization
Concentration as low as which fat accumulation is reduced (C. elegans; 48 hours): 10 µM

Km for the p53-382 acetylated peptide (SIRT1 initial deacetylation rate, fluorescence) [3]: 64 µM
Molecule: His6-tagged recombinant SIRT1 (from UniProt Q96EB6) (enzyme)

Molecule: roziglitazone
Insulin sensitivity (radioactive glucose uptake) [4]: increases the uptake of radioactive glucose
